Measurements as given in publication PMC9887927, “Biochemical characterization and insights into the potency of the acidic Aspergillus niger NRC114 purified α-galactosidase in removing raffinose family oligosaccharides from soymilk yogurt” (BMC Biotechnology, 2023).

Test system: T1, Aspergillus niger NRC114 α-galactosidase
T1 construct: gene aglB; native secreted enzyme purified from culture filtrate (ammonium sulfate, Sephadex G-100, DEAE-Sephadex A-50); 64 kDa monomer by SDS-PAGE
Test: p-nitrophenol release, absorbance; Lineweaver-Burk plot
Format: biochemical
Conditions: pH 3.5, 60 °C; substrate range printed as 0.04–0.8 µM; printed unit doubtful (probably mM: compared with mM literature values, assay stock 4 mM)

Km: 0.000401 mM
SMILES: O=[N+]([O-])c1ccc(O[C@H]2O[C@H](CO)[C@H](O)[C@H](O)[C@H]2O)cc1 [p-nitrophenyl-α-D-galactopyranoside]
